The source of these data is patent US6797824B2, “Certain 4-aminomethyl-2-substituted imidazole derivatives and 2-aminomethyl-4-substituted imidazole derivatives; new classes of dopamine receptor subtype specific ligands” (Neurogen Corporation, priority 1990, dated 2004).

Test [1] has as its target T1, human dopamine D4 receptor subtype (Homo sapiens, UniProt P21917).
T1 construct: expressed in transfected cells
T1 sequence (P21917 1-419): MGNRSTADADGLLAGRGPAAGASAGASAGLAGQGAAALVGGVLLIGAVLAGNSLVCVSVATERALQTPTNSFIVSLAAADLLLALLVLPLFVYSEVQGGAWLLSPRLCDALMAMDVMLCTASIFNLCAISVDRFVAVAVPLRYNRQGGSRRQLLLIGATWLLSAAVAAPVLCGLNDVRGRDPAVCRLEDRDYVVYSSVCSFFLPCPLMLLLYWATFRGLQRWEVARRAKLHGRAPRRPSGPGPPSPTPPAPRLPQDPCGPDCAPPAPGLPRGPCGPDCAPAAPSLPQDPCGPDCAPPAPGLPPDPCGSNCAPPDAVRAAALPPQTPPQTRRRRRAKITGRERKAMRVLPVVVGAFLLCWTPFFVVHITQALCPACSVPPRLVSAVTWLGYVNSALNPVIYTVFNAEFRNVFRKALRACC
Put plainly: D4 receptor binding, displacement of [3H]YM-09151-2. Here is the method: Assay for D4 Receptor Binding Activity
Clonal cell lines expressing the human dopamine D4 receptor subtype were harvested in PBS and the cells centrifuged and the pellets stored at −80° C. until used in the binding assay. […] The homogenate is centrifuged at 48000×g for 10 minutes at 4° C. The resulting pellet is resuspended in fresh buffer and centrifuged again. After resuspension of the pellet in fresh buffer at […] aliquot is removed for protein determination. […] Incubations were carried out for 60 minutes at 25° C. in the presence of 0.1 nM [^3H] […] Non-specific binding was determined with 1 mM spiperone and radioactivity determined by counting in an LKB beta counter. Binding parameters were determined by non-linear least squares regression analysis, from which the inhibition constant (ki) could be calculated for each test compound.

Test [2] deals with male Sprague Dawley rats (learning and memory). The experiment in a line: Step-down passive avoidance task. Format: in vivo, rat.
Description: Non-naive male Sprague Dawley rats (SASCO St. Louis) weighing between 2000-300 grams, were housed in groups of three in a temperature and humidity controlled vivarium having a 12 hour light/dark cycle. Animals had ad lib access to food and water.
Both drugs were administered intravenously 5 minutes prior to training in both learning tasks.
Step-Down Passive Avoidance: A step-down passive avoidance platform 4 (cm)×7 (cm) was placed in the center of an electrified gris floor, which was contained within a large (45×45×50 cm) white translucent plexiglas enclosure having a closable lid. The bars of the grip were spaced 1.5 cm apart and were wired to a BRS-LVE shock generator/scrambler which was set to deliver a 2 mA 6 second shock. Four passive avoidance boxes were automated by customer software (Labview) and commercial interface modules (National Instruments) connected to a computer. The timing and delivery of the shock as well as the latency to steo down and the number of trials taken to reach criterion during raining was under the control of the computer. All testing was done in the presence of 62 db white noise. […]
Retention Testing: Testing was conduced approximately 24 hours after training, Drug-free animals were placed on the platform in the box in which they were trained and the latency to step down onto the unshocked floor was recorded for one trial. […]
Test [3] concerns the target T2, dopamine D4 receptors in rat hippocampus (Rattus norvegicus, UniProt P30729).
T2 construct: from tissue; host or cells: rat hippocampus (from the head of the results)
T2 sequence (P30729 1-387): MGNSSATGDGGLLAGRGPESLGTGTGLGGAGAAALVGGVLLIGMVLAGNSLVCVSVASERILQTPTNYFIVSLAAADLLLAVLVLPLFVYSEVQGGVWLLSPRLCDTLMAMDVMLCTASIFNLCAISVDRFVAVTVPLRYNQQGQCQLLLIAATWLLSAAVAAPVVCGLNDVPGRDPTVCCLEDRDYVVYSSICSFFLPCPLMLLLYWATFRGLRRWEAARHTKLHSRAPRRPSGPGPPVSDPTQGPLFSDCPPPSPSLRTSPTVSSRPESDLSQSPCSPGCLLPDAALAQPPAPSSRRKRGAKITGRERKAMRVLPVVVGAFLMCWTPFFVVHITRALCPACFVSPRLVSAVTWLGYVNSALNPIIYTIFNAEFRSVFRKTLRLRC
The experiment in a line: Binding to D4 receptors in rat hippocampus.

The target in test [4] is T3, dopamine D4 receptors in human hippocampus (Homo sapiens, UniProt P21917).
T3 construct: from tissue; host or cells: human hippocampus (from the head of the results)
T3 sequence (P21917 1-419): T1 sequence (P21917 1-419)
The experiment in a line: Binding to D4 receptors in human hippocampus.

Structures are written as SMILES. Counter-ions that a name gives are not always drawn.

One may read the Ki as a dissociation constant, usually derived from enzyme kinetics or from competition with a known ligand. Turning to `c1ccc(-c2ncc(CN3CCN(c4ncccn4)CC3)[nH]2)cc1` [Compound 23, 2-Phenyl-4(5)-[(4-(2-pyrimidinyl)-piperazin-1-yl)methyl]-imidazole dihydrochloride], the Ki in test [1] was determined as 2.7 nM. In addition, in test [2] (0.25 mg/kg i.v., retest about 24 h after training), the “passive avoidance retention: time on platform during retest vs vehicle” value was “significantly longer time”. The “passive avoidance acquisition vs vehicle group” value in test [2] (0.03-1.0 mg/kg i.v. 5 min prior to training) is “no significant differences”. For the same molecule, the “binding to dopamine D4 receptors, functional type” value (“binding to dopamine D4 receptors” below) in test [3] and in test [4] was “antagonists binding to dopamine D4 receptors” in each case.

For the molecule `c1ccc(-c2ncc(CN3CCN(c4ccccn4)CC3)[nH]2)cc1` [Compound 24, 2-Phenyl-4(5)-[(4-(2-pyridyl)-piperazin-1-yl)-methyl]-imidazole dihydrochloride], the “binding to dopamine D4 receptors” value in test [3] and in test [4] was “antagonists binding to dopamine D4 receptors” each time.

For the molecule `c1ccc(-c2ncc(CN3CCN(c4ccccc4)CC3)[nH]2)cc1` [Compound 45, 2-Phenyl-4(5)-[(4-phenyl-piperazin-1-yl)methyl]-imidazole], in test [1], the Ki turned out to be 5 nM. Moreover, the “binding to dopamine D4 receptors” value in test [3] and in test [4] was “antagonists binding to dopamine D4 receptors” each time.
